Assay results as given in patent publication US9776972B2, “Pyrazole derivatives as arginine methyltransferase inhibitors and uses thereof” (priority 2013, dated 2017).

Tested on: mono-methyl arginine in RKO cells
Assay: RKO Methylation Assay, In Cell Western (ICW) for mono-methyl arginine and DNA content
Type: cell-based
Settings: Homo sapiens, RKO, 72 h, RKO cells, 72 hours, mono-methyl arginine, percent activation; single experiment or average of multiple experiments; read-out: EC30 (In Cell Western data, Numerical)
Outline: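 After fixation, mono-methyl arginine and DNA (DRAQ5) were measured by infrared In-Cell Western imaging at 700/800 nm in RKO cells exposed to compounds for 72 hours. Percent activation used DMSO wells as minimum and 20 μM reference compound as maximum; EC30 curves fitted on triplicate wells.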

Point of comparison: `CN(CCN)Cc1c[nH]nc1-c1ccc(Cl)cc1` [Compound 95], EC30 1.23 µM. Against it:
- CN(CCN)Cc1c[nH]nc1-c1ccc(F)cc1 [Compound 1] — 6-fold higher, 7.4 µM
- CN(CCN)Cc1cn(C)nc1-c1ccc(F)cc1 [Compound 3] — 13-fold higher, 16.2 µM
- COCCn1cc(CN(C)CCN)c(-c2ccc(F)cc2)n1 [Compound 5] — higher, > 20 µM
- CC(C)Oc1ccc(-c2n[nH]cc2CN(C)CCN)cc1 [Compound 67] — 2.4-fold lower, 0.507 µM
- CN(CCN)Cc1n[nH]cc1-c1ccc(F)cc1 [Compound 69] — 6.5-fold higher, 7.99 µM
- CN(CCN)Cc1c[nH]nc1-c1cccc(C#N)c1 [Compound 70] — higher, > 20 µM
- CN(CCN)Cc1c[nH]nc1-c1cccc(F)c1 [Compound 71] — 3-fold higher, 3.72 µM
- CN(CCN)Cc1c[nH]nc1-c1ccccc1 [Compound 73] — 12-fold higher, 14.7 µM
- CN(CCN)Cc1c[nH]nc1-c1ccc(C(C)(C)C)cc1 [Compound 74] — 5.2-fold higher, 6.34 µM
- CC(C)N(CCN)Cc1c[nH]nc1-c1ccc(F)cc1 [Compound 75] — higher, > 20 µM
- NCCN(Cc1c[nH]nc1-c1ccc(F)cc1)C1CC1 [Compound 78] — 8.6-fold higher, 10.6 µM
- CN(CCN)Cc1cnn(C2COC2)c1-c1ccc(F)cc1 [Compound 81] — higher, > 20 µM
- CN(CCN)Cc1c[nH]nc1-c1ccc(N2CCNCC2)cc1 [Compound 82] — higher, > 20 µM
- CN(CCN)Cc1nn(C)cc1-c1ccc(C#N)cc1 [Compound 83] — 5.5-fold higher, 6.75 µM
- CN(CCN)Cc1c[nH]nc1-c1ccc(Cl)cc1Cl [Compound 86] — 4.6-fold higher, 5.63 µM
- COc1ccc(-c2n[nH]cc2CN(C)CCN)c(OC)c1 [Compound 87] — higher, > 20 µM
- Cc1ccc(-c2n[nH]cc2CN(C)CCN)c(C)c1 [Compound 88] — 12-fold higher, 14.5 µM
- CN(CCN)Cc1c[nH]nc1-c1ccc(F)cc1Cl [Compound 89] — 8.9-fold higher, 11 µM
- Cc1ccc(-c2n[nH]cc2CN(C)CCN)c(Cl)c1 [Compound 90] — 8.5-fold higher, 10.4 µM
- Cc1ccc(Cl)c(-c2n[nH]cc2CN(C)CCN)c1 [Compound 91] — higher, > 20 µM
- CN(CCN)Cc1c[nH]nc1-c1ccc(C(F)(F)F)cc1 [Compound 92] — within 1.5-fold, 0.956 µM
- CN(CCN)Cc1c[nH]nc1-c1ccc(OC(F)(F)F)cc1 [Compound 93] — within 1.5-fold, 1.11 µM
- CN(CCN)Cc1c[nH]nc1-c1ccc(OC(F)F)cc1 [Compound 94] — within 1.5-fold, 1.78 µM
- CC(C)Oc1ccc(-c2n[nH]cc2CN(C)CCN)cc1Cl [Compound 168] — 19-fold lower, 0.066 µM

Same assay, conditions: Homo sapiens, RKO, 72 h, read-out: EC30 (In Cell Western data, Numerical, μM)

Point of comparison: `CN(CCN)Cc1cnn(C)c1-c1ccc(F)cc1` [Compound 4], EC30 12.1 µM. Against it:
- CN(CCN)Cc1cn(C2COC2)nc1-c1ccc(F)cc1 [Compound 77] — within 1.5-fold, 12.5 µM
- CN(CCN)Cc1c[nH]nc1-c1ccc(C(F)(F)F)cc1C(F)(F)F [Compound 85] — higher, > 20 µM

Same assay, conditions: RKO cells, 72 hours, mono-methyl arginine, percent activation; class symbols

`CNCCN(C)Cc1c[nH]nc1-c1cccc(N)c1` [Compound 32] was tested, and the “EC30 (In Cell Western data)” value was “C (“C” indicates an EC30 ≧ 12.01 μM)”.
For `CNCCN(C)Cc1c[nH]nc1-c1ccc(CC#N)cc1` [Compound 34], the “EC30 (In Cell Western data)” value was “C (“C” indicates an EC30 ≧ 12.01 μM)”.
In the case of `CNCCN(C)Cc1c[nH]nc1-c1ccccc1O` [Compound 35], the “EC30 (In Cell Western data)” value is reported as “C (“C” indicates an EC30 ≧ 12.01 μM)”.
With `CNCCN(C)Cc1c[nH]nc1-c1ccccc1NS(C)(=O)=O` [Compound 41] the “EC30 (In Cell Western data)” value was “C (“C” indicates an EC30 ≧ 12.01 μM)”.
`CNCCN(C)Cc1c[nH]nc1-c1cccc(NC(C)=O)c1` [Compound 42] was tested, and the “EC30 (In Cell Western data)” value was “C (“C” indicates an EC30 ≧ 12.01 μM)”.
In the case of `CNCCN(C)Cc1c[nH]nc1-c1cccc(C(C)=O)c1` [Compound 44], the “EC30 (In Cell Western data)” value is reported as “C (“C” indicates an EC30 ≧ 12.01 μM)”.
For `CNCCN(C)Cc1c[nH]nc1-c1ccc(-c2ccccc2)cc1` [Compound 47], the “EC30 (In Cell Western data)” value was “A (“A” indicates an EC30 ≦ 3.00 μM)”.

Same assay, conditions: RKO cells, 72 hours, mono-methyl arginine, percent activation; single experiment or average of multiple experiments

With `CNCCN(C)Cc1c[nH]nc1-c1ccc(-c2ccccc2)cc1` [Compound 47] the “EC30 (In Cell Western data, Numerical, μM)” value was 0.104 µM.
